Reference: publication PMC6271077, “Synthesis, Anticancer and Antibacterial Activity of Salinomycin N-Benzyl Amides” (Molecules, 2014)
≈ marks a conversion by molar mass, not a printed value. Like-named read-outs stand apart in the source and are kept apart here.

Assays:
HL-60/vinc = test: Antiproliferative MTT assay, HL-60/vinc; format: cell-based, human; settings: for IC50: Homo sapiens, HL60/vinc, 72 h, read-out: IC50 HL-60/vinc; for IR HL-60/vinc: IR = IC50 HL-60/vinc / IC50 HL-60; for SI HL-60/vinc: SI = IC50 BALB/3T3 / IC50 HL-60/vinc
Description: (§1) Four human cancer cell lines and one normal cell line were used to evaluate anticancer activity of SAL and its N-benzyl amides: human acute promyelocytic leukemia (HL-60) and its vincristine resistant subline (HL-60/vinc), human colon adenocarcinoma cell lines sensitive (LoVo) and resistant to doxorubicin (LoVo/dx) as well as also normal murine embryonic fibroblast cell line (BALB/3T3). The BALB/3T3 cell line was purchased from the American Type Culture Collection (ATCC Rockville, MD, USA), HL-60 cell line from European Type Culture Collection by courtesy of Professor Spik and Dr Mazurier (Laboratory of Biological Chemistry USTL, Lille, France) and HL-60/vinc, LoVo and LoVo/dx by courtesy of Prof. E. Borowski (Technical University of Gdańsk, Gdańsk, Poland). All the cell lines are maintained in the Institute of Immunology and Experimental Therapy (IIET), Wrocław, Poland.
(§2) Human leukemia cells were cultured in ISCOVE medium (IIET, Wroclaw, Polond) containing 10% fetal bovine serum and 2 mM L-glutamine (Sigma Aldrich) and 1 µg/100 mL […] for HL-60/vinc (Sigma Aldrich). Human colon adenocarcinoma cell lines were cultured in mixture of OptiMEM and RPMI 1640 (1:1) medium (IIET) supplemented with 5% fetal bovine serum (Thermo Fisher Scientific, Waltham, MA, USA), 2 mM L-glutamine, 1 mM sodium pyruvate (Sigma Aldrich) and 10 µg/100 mL doxorubicin for LoVo/dx (Sigma Aldrich). Murine embryonic fibroblast cells were cultured in Dulbecco medium (Gibco, Darmstadt, Germany) supplemented with 10% fetal bovine serum (Thermo Fisher Scientific) and 2 mM L-glutamine (Sigma Aldrich). All culture media contained antibiotics: 100 U/mL penicillin (Sigma Aldrich) and 100 µg/mL streptomycin (Polfa-Tarchomin, City, Poland). All cell lines were cultured during entire experiment in humid atmosphere at 37 °C and 5% CO2.
(§3) Twenty four hours before adding the tested compounds all cell lines were seeded in 96-well plates (Sarstedt, Nümbrecht, Germany) in appropriate media with 10^4 cells per well. All cell lines were exposed to each tested agent at four different concentrations from the range 100 to 0.1 µg/mL for 72 h. The cells were also exposed to the reference drugs: cisplatin (Accord, London, UK) and doxorubicin hydrochloride (Fluka, St. Louis, MO, USA). Additionally, all cell lines were exposed to DMSO (the solvent used for tested compounds, Sigma Aldrich) at the concentrations corresponding to those in the tested agent dilutions. For adherent cells sulphorodamine B assay was performed and MTT assay for leukemia cells.
(§4) Proliferation inhibition of leukemia cells by tested compounds was measured by means of MTT assay. Thus, 20 µL of 3-(4,5-dimethylthiazol-2-yl)-2,5-diphenyl tetrazolium bromide solution (Sigma Aldrich) were added to each well and plates were left in cell incubator for 4 h to allow the cells to metabolize yellow MTT to blue formazan. Then, the lysing mixture consisting of 225 mL dimethylformamide, 67.5 g sodium dodecyl sulfate (both from Sigma Aldrich) and 275 mL of distilled water was added in 80 µL volume per well. Plates were incubated for 24 h for the formazan crystals to be released from cells, dissolved and then absorbance of each well was read at Synergy H4 photometer (BioTek Instruments) at 570 nm wavelength.
(§5) Results are presented as mean IC50 (concentration of the tested compound that inhibits cell proliferation by 50%) ± standard deviation. IC50 values were calculated in Cheburator 1.0.2, Dmitry Nevozhay software for each experiment. Compounds at each concentration were tested in triplicates in single experiment and each experiment was repeated at least three times independently. The IR was defined as the ratio of IC50 for a given compound calculated for resistant cell line to that measured for its parental drug sensitive cell line (Table 4).

[1] = tested on: M. tuberculosis standard H37Rv strain; test: Tuberculostatic activity, test-tube dilution; format: cell-based; settings: Mycobacterium tuberculosis, read-out: MIC M. tuberculosis Standard H37Rv Strain
HL-60 = test: Antiproliferative MTT assay, HL-60; format: cell-based, human; settings: for IC50: Homo sapiens, read-out: IC50 HL-60; for SI HL-60: SI = IC50 BALB/3T3 / IC50 HL-60
Description: as §1, §2, §3, §4, §5

[2] = tested on: M. tuberculosis isoniazid-sensitive strain (spec. 192); test: Tuberculostatic activity, test-tube dilution; format: cell-based; settings: Mycobacterium tuberculosis, read-out: MIC M. tuberculosis Isoniazid-Sensitive Strain
LoVo/dx = test: Antiproliferative SRB assay, LoVo/dx; format: cell-based, human; settings: for IC50: Homo sapiens, LoVo/DX, 72 h, read-out: IC50 LoVo/dx; for IR LoVo/DX: IR = IC50 LoVo/dx / IC50 LoVo; for SI LoVo/DX: SI = IC50 BALB/3T3 / IC50 LoVo/dx
Description: as §1, §2, §3
(§6) After 72 h of incubation with tested compounds the cells were fixed in situ by gently adding of 50 µL per well of cold 50% trichloroacetic acid TCA (Avantor Performance Materials, City, Poland) and were incubated at 4 °C for 1 h. Then the wells were washed four times with water and air-dried. Next, 50 µL of 0.2% solution of sulphorodamine B (Sigma Aldrich) in 1% acetic acid (Avantor Performance Materials) were added to each well and plates were incubated at room temperature for 0.5 h. After incubation time, unbound dye was removed by washing plates four times with 1% acetic acid, whereas the stain bound to cells was solubilized with 150 µL of 10 mM Tris base (Sigma Aldrich). Absorbance of each solution was read at Synergy H4 photometer (BioTek Instruments, Winooski, VT, USA) at 540 nm wavelength.
as §5

LoVo = test: Antiproliferative SRB assay, LoVo; format: cell-based, human; settings: for IC50: Homo sapiens, LoVo, 72 h, read-out: IC50 LoVo; for SI LoVo: SI = IC50 BALB/3T3 / IC50 LoVo
Description: as §1, §2, §3, §6, §5

[3] = tested on: standard and "wild" strains of M. tuberculosis; test: Tuberculostatic activity, all M. tuberculosis strains (overall); format: cell-based; settings: Mycobacterium tuberculosis, H37RV, read-out: MIC (over M. tuberculosis strains)
[4] = tested on: HL-60, HL-60/vinc, LoVo, LoVo/dx; test: Antiproliferative assays, all four cancer cell lines (range given); format: cell-based; settings: Homo sapiens, read-out: IC50 (range over the cancer cell lines)
Description: as §1, §2, §3, §6
Proliferation inhibition of leukemia cells by tested compounds was measured by means of MTT assay. […]

[5] = HL-60, 72 h, MTT, mean ± SD, NA: not active in concentrations used (up to 100 µg/mL)

| SMILES | IC50 (HL-60/vinc) [µM] | IR HL-60/vinc (HL-60/vinc) | SI HL-60/vinc (HL-60/vinc) | MIC [1] [µg/mL] | IC50 (HL-60; [5]) [µM] | SI HL-60 (HL-60) | MIC [2] [µg/mL] | IC50 (LoVo/dx) [µM] | IR LoVo/DX (LoVo/dx) | SI LoVo/DX (LoVo/dx) | IC50 (LoVo; SRB, mean ± SD) [µM] | SI LoVo (LoVo) | MIC [3] [µg/mL] | IC50 (HL-60; HL-60, 72 h) [µM] | IC50 [4] [µM] | IC50 (LoVo) [µM] |
| --- | --- | --- | --- | --- | --- | --- | --- | --- | --- | --- | --- | --- | --- | --- | --- | --- |
| CC[C@H](C(=O)NCc1ccc(Br)cc1)C1CC[C@H](C)C([C@@H](C)[C@H](O)[C@H](C)C(=O)[C@H](CC)C2O[C@]3(C=C[C@@H](O)C4(CC[C@@](C)(C5CC[C@](O)(CC)[C@H](C)O5)O4)O3)[C@H](C)C[C@@H]2C)O1 (some centres unmarked) [Br-p] | 33.5 ± 10.9 | 1.62 | 0.25 | 50 (≈ 54.4 µM) | 20.7 ± 4.66 | 0.41 | 50 (≈ 54.4 µM) | 4.97 ± 2.76 | 0.30 | 1.69 | 16.3 ± 0.96 | 0.52 | – | – | – | – |
| CC[C@H](C(=O)NCc1cccc([N+](=O)[O-])c1)C1CC[C@H](C)C([C@@H](C)[C@H](O)[C@H](C)C(=O)[C@H](CC)C2O[C@]3(C=C[C@@H](O)C4(CC[C@@](C)(C5CC[C@](O)(CC)[C@H](C)O5)O4)O3)[C@H](C)C[C@@H]2C)O1 (some centres unmarked) [NO2-m] | 24.6 ± 8 | 2.80 | 1.01 | 100 (≈ 113 µM) | 8.78 ± 1.73 | 2.84 | 100 (≈ 113 µM) | 3.26 ± 0.84 | 0.20 | 7.64 | 16.1 ± 1.61 | 1.54 | – | – | – | – |
| CC[C@H](C(=O)NCc1cccc(Cl)c1)C1CC[C@H](C)C([C@@H](C)[C@H](O)[C@H](C)C(=O)[C@H](CC)C2O[C@]3(C=C[C@@H](O)C4(CC[C@@](C)(C5CC[C@](O)(CC)[C@H](C)O5)O4)O3)[C@H](C)C[C@@H]2C)O1 (some centres unmarked) [Cl-m] | 6.59 ± 1.22 | 1.72 | 2.63 | 100 (≈ 114 µM) | 3.83 ± 0.09 | 4.52 | > 100 | 2.96 ± 0.99 | 0.25 | 5.86 | 11.6 ± 5.12 | 1.49 | – | – | – | – |
| CC[C@H](C(=O)NCc1cccc(Br)c1)C1CC[C@H](C)C([C@@H](C)[C@H](O)[C@H](C)C(=O)[C@H](CC)C2O[C@]3(C=C[C@@H](O)C4(CC[C@@](C)(C5CC[C@](O)(CC)[C@H](C)O5)O4)O3)[C@H](C)C[C@@H]2C)O1 (some centres unmarked) [Br-m] | 7.08 ± 1.73 | 2.09 | 1.31 | > 100 | 3.38 ± 1.09 | 2.74 | > 100 | 3.39 ± 0.15 | 0.65 | 2.73 | 5.23 ± 0.22 | 1.77 | > 100 | – | – | – |
| CCC(C(=O)NCc1ccccc1[N+](=O)[O-])C1CCC(C)C(C(C)C(O)C(C)C(=O)C(CC)C2OC3(C=CC(O)C4(CCC(C)(C5CCC(O)(CC)C(C)O5)O4)O3)C(C)CC2C)O1 (centres unmarked) [NO2-o] | 6.84 ± 2.04 | 1.97 | 1.40 | 50 (≈ 56.5 µM) | – | 2.75 | 50 (≈ 56.5 µM) | 2.45 ± 0.26 | 0.64 | 3.90 | – | 2.51 | – | 3.47 ± 0.44 | 2.32 to 6.84 | 3.81 ± 0.18 |
